Experiment [1] relates to HCT-116/VM46 human colon carcinoma cells. The experiment can be described thus: In vitro cytotoxicity, XTT assay, HCT-116/VM46 cells (teniposide-resistant, multidrug resistance phenotype). It is filed as cell-based. The settings on record: for IC50: Homo sapiens, read-out: IC50 HCT-116/VM46; for fold resistance relative to HCT116 cells: 4320 min. For orientation: Tetrazolium dyes change colour on reduction, which living cells bring about.

In experiment [2] the test system is HCT-116 human colon carcinoma cells. The experiment can be described thus: In vitro cytotoxicity, XTT assay, HCT-116 human colon carcinoma cells. It is filed as cell-based. As to conditions: read-out: IC50 HCT-116.
For experiment [3] the following is noted: background statement; cited from earlier work.
Where [4] appears, read: HCT-116/VM46 relative to HCT116, value in parenthesis.
Setting [5] is: HCT-116/VM46, teniposide-resistant, multidrug resistance phenotype, XTT, 72 hours, 37° C.

Like-named read-outs stand apart in the source and are kept apart here.

For the molecule `CC(=O)O[C@H]1C(=O)[C@@]2(C)[C@H]([C@H](OC(=O)c3ccccc3)[C@]3(O)C[C@H](OC(=O)[C@H](O)[C@@H](NC(=O)c4ccccc4)c4ccccc4)C(C)=C1C3(C)C)[C@]1(OC(C)=O)CO[C@@H]1C[C@@H]2O` [Taxol], the IC50 in experiment [1] (HCT-116/VM46, 72 h) was 440 nM; in experiment [2] (HCT-116, 72 h), 4 nM. In addition, in experiment [1] (human, hct-116/vm46 cells), the “fold resistance relative to HCT116 cells” value is given as 124 fold. In addition, the “antitumor activity in in vivo animal models” value in experiment [3] is recorded as “excellent antitumor activity”.
For the molecule `C=C1C2=CC(=O)[C@@]3(C)[C@H]([C@H](OC(=O)c4ccccc4)[C@](O)(C[C@@H]1OC(=O)[C@H](O)[C@@H](NC(=O)c1ccccc1)c1ccccc1)C2(C)C)[C@]1(OC(C)=O)CO[C@@H]1C[C@@H]3O` [Example 9, 10-Desacetoxy-11,12-dihydrotaxol-10,12(18)-diene], the IC50 in experiment [2] (HCT-116, 72 h) turned out to be 38 nM.
The same measure, in the same setting: to `CC(=O)O[C@@]12CO[C@@H]1C[C@H](OC(=O)C(F)Cl)[C@@]1(C)C(=O)CC3=C(C)[C@@H](OC(=O)[C@H](O)[C@@H](NC(=O)c4ccccc4)c4ccccc4)C[C@@](O)([C@@H](OC(=O)c4ccccc4)[C@H]21)C3(C)C` (some centres unmarked) [Example 4, 7-O-chlorofluoroacetyl-10-desacetoxytaxol] belongs 8 nM.
Still for that read-out and setting: as for `C=C1C2=CC(=O)[C@]3(C)[C@H](O)C[C@H]4OC[C@@]4(OC(C)=O)[C@H]3[C@H](OC(=O)c3ccccc3)[C@](O)(C[C@@H]1OC(=O)[C@H](O)[C@@H](NC(=O)c1ccccc1)c1ccccc1)C2(C)C` [Example 16, 10-Desacetoxy-11,12-dihydro-7-epitaxol-10,12(18)-diene], the figure is 40 nM; as for `C=C1C2=CC(=O)[C@]3(C)[C@@H](OC(=O)C(F)Cl)C[C@H]4OC[C@@]4(OC(C)=O)[C@H]3[C@H](OC(=O)c3ccccc3)[C@](O)(C[C@@H]1OC(=O)[C@H](O)[C@@H](NC(=O)c1ccccc1)c1ccccc1)C2(C)C` (some centres unmarked) [Example 3, 7-O-chlorofluoroacetyl-10-desacetoxy-11,12-dihydrotaxol-10,12(18)-diene], 38 nM.
`CC(=O)O[C@@]12CO[C@@H]1C[C@H](O)[C@@]1(C)C(=O)CC3=C(C)[C@@H](OC(=O)[C@H](O)[C@@H](NC(=O)c4ccccc4)c4ccccc4)C[C@@](O)([C@@H](OC(=O)c4ccccc4)[C@H]21)C3(C)C` [Example 10, 10-Desacetoxytaxol]: the “fold resistance relative to HCT116 cells” value in experiment [1] (setting [4]) is reported as 153 fold. In addition, the IC50 in experiment [1] (setting [5]) was 1220 nM; in experiment [2] (HCT-116, XTT, 72 hours, 37° C.) it was 8 nM.
The matching figures for `CC(=O)O[C@@]12CO[C@@H]1C[C@@H](O)[C@@]1(C)C(=O)CC3=C(C)[C@@H](OC(=O)[C@H](O)[C@@H](NC(=O)c4ccccc4)c4ccccc4)C[C@@](O)([C@@H](OC(=O)c4ccccc4)[C@H]21)C3(C)C` [Example 13, 7-Epi-10-desacetoxytaxol]: under 32 fold, 3090 nM and over 98 nM.

Source of the values: US5248796A, “Taxol derivatives” (Bristol-Myers Squibb Company, priority 1992, dated 1993).
